Where two headings read alike, the source gives them in different places.
Tests used:
[1] = logP determination by HPLC (formic acid method); type: physicochemical; settings: reversed-phase HPLC column (C18), read-out: logP (HCOOH)
Procedure: 1) Description of the method for determining the logP values (formic acid method)
The logP values given in the table were determined in accordance with EEC Directive 79/831 Annex V.A8 by HPLC (High Performance Liquid Chromatography) on a reversed-phase column (C18). Temperature: 55° C.
Mobile phases for the determination in the acidic range (pH 3.4):
Mobile phase A: Acetonitrile+1 ml of formic acid/litre. Mobile phase B: water+0.9 ml of formic acid/litre.
Gradient: from 10% mobile phase A/90% mobile phase B to 95% mobile phase A/5% mobile phase B in 4.25 min.
Calibration was carried out using unbranched alkan-2-ones (having 3 to 16 carbon atoms) with known logP values (determination of the logP values by the retention times using linear interpolation between two successive alkanones). The lambda max values were determined in the maxima of the chromatographic signals using the UV spectra from 200 nm to 400 nm.

[2] = system: green peach aphid (Myzus persicae); assay: Myzus test (spray treatment); type: in vivo; settings: foliar, read-out: activity (effect in %, aphids killed)
Procedure: Myzus Test (Spray Treatment)
• Solvents: 78.0 parts by weight of acetone • 1.5 parts by weight of dimethylformamide • Emulsifier: 0.5 part by weight of alkylaryl polyglycol ether
To produce a suitable preparation of active compound, 1 part by weight of active compound is mixed with the stated amounts of solvents and emulsifier, and the concentrate is diluted with emulsifier-containing water to the desired concentration.
Discs of leaves of Chinese cabbage (Brassica pekinensis) which are heavily infested by all stages of the green peach aphid (Myzus persicae) are sprayed with an active compound preparation of the desired concentration.
After the desired period of time, the effect in % is determined. 100% means that all aphids have been killed; 0% means that none of the aphids have been killed.

[3] = pH 3.4, HPLC on reversed-phase column (C18), acidic range (pH 3.4), 55° C.
[4] = application rate of 500 g/ha, sprayed Chinese cabbage leaf discs
[5] = pH 3.4, values printed in the text of the preparation examples, formic acid method

Row | Structure (SMILES) | chromatographic logP [1, 3] | chromatographic logP [1, 5] | pest or weed control at 500 g/ha [2, 4] [%] | pest or weed control at 100 g/ha ([2]; application rate of 100 g/ha, sprayed Chinese cabbage leaf discs) [%] | pest or weed control at 500 g/ha ([2]; in Brassica rapa) [%]
1 | Cc1nc(-c2cccnc2)sc1-n1ccc(C(F)(F)F)n1 [Ex. No. 14] | 2.63 | – | ≥ 80 | – | –
2 | Cc1nc(-c2cccnc2)sc1-n1ccc(C(F)(F)C(F)(F)F)n1 [Ex. No. 140] | 3.31 | – | – | ≥ 80 | –
3 | Cc1nc(-c2cccnc2)sc1-c1ccnc(-c2ncccn2)n1 [Preparation Example 1, 4-(4-Methyl-2-pyridin-3-ylthiazol-5-yl)-[2,2′]bipyrimidinyl] | 1.17 | 1.17 | – | – | ≥ 80
4 | Cc1nc(-c2cccnc2)sc1-c1ccn(-c2cnccn2)n1 [Preparation Example 2, 2-[3-(4-Methyl-2-pyridin-3-ylthiazol-5-yl)pyrazol-1-yl]pyrazine] | 2.3 | 2.3 | ≥ 80 | – | –
5 | Cc1nc(-c2cccnc2)sc1-n1ccc(-c2ncccn2)n1 [Preparation Example 3, 2-[1-(4-Methyl-2-pyridin-3-ylthiazol-5-yl)-1H-pyrazol-3-yl]pyrimidine] | 1.48 | 1.48 | ≥ 80 | – | –
6 | Cc1nc(-c2cccnc2)sc1-c1cccc(-c2nccnn2)n1 [Preparation Example 4, 3-[6-(4-Methyl-2-pyridin-3-ylthiazol-5-yl)pyridin-2-yl]-[1,2,4]triazine] | 1.58 | 1.58 | – | – | ≥ 80
7 | c1cnc(-c2cccc(-c3cnc(-c4cccnc4)s3)n2)nc1 [Preparation Example 5, 2-[6-(2-Pyridin-3-ylthiazol-5-yl)pyridin-2-yl]pyrimidine] | 1.53 | 1.53 | ≥ 80 | – | –
8 | Cc1nc(-c2cccnc2)sc1-c1cccc(-c2ncccn2)n1 [Preparation Example 6, 2-[6-(4-Methyl-2-pyridin-3-ylthiazol-5-yl)pyridin-2-yl]pyrimidine] | 1.73 | 1.75 | – | – | ≥ 80
9 | Cc1nc(-c2cccnc2)sc1C1=NN(c2ncccn2)CCO1 [Preparation Example 7, 2-(4-Methyl-2-pyridin-3-ylthiazol-5-yl)-4-pyrimidin-2-yl-5,6-dihydro-4H-[1,3,4]oxadiazine] | 1.56 | 1.56 | ≥ 80 | – | –
10 | Cc1nc(-c2cccnc2)sc1-c1cccc(C2=NOCCO2)n1 [Preparation Example 8, 3-[6-(4-Methyl-2-pyridin-3-ylthiazol-5-yl)pyridin-2-yl]-5,6-dihydro-[1,4,2]dioxazine] | 1.82 | 1.81 | – | – | ≥ 80
11 | c1cnc(-c2nccc(-c3nnc(-c4cccnc4)s3)n2)nc1 [Preparation Example 9, 4-(5-Pyridin-3-yl-[1,3,4]thiadiazol-2-yl)-[2,2′]bipyrimidinyl] | 1.07 | 1.07 | – | – | ≥ 80
12 | c1cnc(-c2cccc(-c3nnc(-c4cccnc4)s3)n2)nc1 [Preparation Example 10, 2-[6-(5-Pyridin-3-yl-[1,3,4]thiadiazol-2-yl)pyridin-2-yl]pyrimidine] | 1.54 | 1.54 | ≥ 80 | – | –
13 | Cn1nc(-c2cccnc2)cc1-c1ccn(-c2ncccn2)n1 [Preparation Example 11] | 1 | 1 | ≥ 80 | – | –
14 | Cn1nc(-c2cccnc2)cc1-c1ccnc(-c2ncccn2)n1 [Preparation Example 12] | 0.65 | 0.65 | – | – | ≥ 80
15 | Clc1ccc(-c2cnc(-c3cccnc3)s2)cc1 [compound 13] | 3.23 | – | ≥ 80 | – | –
16 | Cc1nc(-c2cccnc2)sc1-n1ccc(-c2ccccn2)n1 [compound 15] | 1.67 | – | ≥ 80 | – | –
17 | Cc1nc(-c2cccnc2)sc1C1=NCC(c2ccccn2)O1 (stereo not shown) [compound 16] | 1.72 | – | ≥ 80 | – | –
18 | Cc1nc(-c2cccnc2)sc1-c1cccc(C(F)(F)F)c1 [compound 17] | 3.55 | – | ≥ 80 | – | –
19 | Cc1nc(-c2cccnc2)sc1-c1cccnc1 [compound 18] | 1.1 | – | ≥ 80 | – | –
20 | COC(OC)c1ccn(-c2sc(-c3cccnc3)nc2C)n1 [compound 19] | 1.77 | – | ≥ 80 | – | –
21 | Cc1nc(-c2cccnc2)sc1-n1ccc(Br)n1 [compound 20] | 2.28 | – | ≥ 80 | – | –
22 | Cc1nc(-c2cccnc2)sc1-c1cccc(C(F)(F)F)n1 [compound 21] | 3.01 | – | ≥ 80 | – | –
23 | Cc1nc(-c2cccnc2)sc1-c1ccn(-c2ncccn2)n1 [compound 22] | 1.74 | – | ≥ 80 | – | –
24 | Cc1nc(-c2cccnc2)sc1-c1ccn(CC(F)(F)F)n1 [compound 23] | 2.2 | – | ≥ 80 | – | –

Further lines, with some results ahead:

Row | chromatographic logP [1, 3] | chromatographic logP [1, 5] | Structure (SMILES) | pest or weed control at 500 g/ha [2, 4] [%] | pest or weed control at 100 g/ha ([2]; application rate of 100 g/ha, sprayed Chinese cabbage leaf discs) [%] | pest or weed control at 500 g/ha ([2]; in Brassica rapa) [%]
25 | 2.94 | – | Cc1nc(-c2cccnc2)sc1-c1ccn(-c2ccccn2)n1 [compound 24] | ≥ 80 | – | –
26 | 2.39 | – | Cc1nc(-c2cccnc2)sc1-c1cccc(C2OCCO2)c1 [compound 25] | ≥ 80 | – | –
27 | 1.47 | – | Cc1nc(-c2cccnc2)sc1-c1ccnn1-c1ncccn1 [compound 26] | ≥ 80 | – | –
28 | 3.08 | – | Cc1nc(-c2cccnc2)sc1-n1ccc(-c2ccccc2)n1 [compound 28] | ≥ 80 | – | –
29 | 1.47 | – | Cc1nc(-c2cccnc2)sc1-c1ccnc(-c2ccccn2)n1 [compound 29] | ≥ 80 | – | –
30 | 2 | – | Cc1nc(-c2sc(-c3cccnc3)nc2C)cs1 [compound 30] | ≥ 80 | – | –
31 | 2.66 | – | Cc1nc(-c2cccnc2)sc1-c1cccc(Cl)n1 [compound 31] | ≥ 80 | – | –
32 | 1.23 | – | Cc1nc(-c2cccnc2)sc1-c1cccc(=O)[nH]1 [compound 32] | ≥ 80 | – | –
33 | 2.21 | – | CSc1cnn(-c2sc(-c3cccnc3)nc2C)c1 [compound 33] | ≥ 80 | – | –
34 | 2.84 | – | Cc1nc(-c2cccnc2)sc1-n1ccc(-c2cccs2)n1 [compound 34] | ≥ 80 | – | –
35 | 1.92 | – | Cc1nc(-c2cccnc2)sc1-n1ccc([N+](=O)[O-])n1 [compound 35] | ≥ 80 | – | –
36 | 3.33 | – | Cc1nc(-c2cccnc2)sc1-n1ccc(-c2ccccc2F)n1 [compound 36] | ≥ 80 | – | –
37 | 3.81 | – | Cc1nc(-c2cccnc2)sc1-n1ccc(-c2ccc(Cl)s2)n1 [compound 37] | ≥ 80 | – | –
38 | 3.94 | – | Cc1nc(-c2cccnc2)sc1-n1ccc(-c2ccccc2C(F)(F)F)n1 [compound 38] | ≥ 80 | – | –
39 | 1.55 | – | Cc1nc(-c2cccnc2)sc1-n1cc(-c2ccccn2)cn1 [compound 39] | ≥ 80 | – | –
40 | 2.43 | – | Cc1nc(-c2cccnc2)sc1-n1ccc(-c2ccco2)n1 [compound 40] | ≥ 80 | – | –
41 | 2.03 | – | Cc1nc(-c2cccnc2)sc1-c1ccnc(-c2ncccc2Cl)n1 [compound 41] | ≥ 80 | – | –
42 | 3.97 | – | Cc1nc(-c2cccnc2)sc1-c1cccc(-c2ccccc2Cl)n1 [compound 42] | ≥ 80 | – | –
43 | 1.86 | – | Cc1nc(-c2cccnc2)sc1-c1cncc(-c2cc(C)n(C)n2)n1 [compound 43] | ≥ 80 | – | –
44 | 2.4 | – | Cc1cc(-c2nccc(-c3sc(-c4cccnc4)nc3C)n2)n(C)n1 [compound 44] | ≥ 80 | – | –
45 | 2.95 | – | Cc1nc(-c2cccnc2)sc1-c1ccnc(C(F)(F)Cl)n1 [compound 45] | ≥ 80 | – | –
46 | 2.47 | – | Cc1nc(-c2cccnc2)sc1-c1ccnc(-c2cccc(Cl)n2)n1 [compound 46] | ≥ 80 | – | –
47 | 1.48 | – | Cc1cc(=O)n(-c2nccc(-c3sc(-c4cccnc4)nc3C)n2)[nH]1 [compound 47] | ≥ 80 | – | –
48 | 1.29 | – | CON(C)C(=O)c1cccc(-c2nnc(-c3cccnc3)s2)n1 [compound 249] | – | – | –
49 | 1.29 | – | O=C(c1cccc(-c2nnc(-c3cccnc3)s2)n1)N1CCOCC1 [compound 250] | – | – | –
50 | – | 0.42 | Cn1nc(-c2cccnc2)cc1-c1cc[nH]n1 [drawing 82] | – | – | –

Reference: patent US9451775B2, “Heterocyclic compounds as pesticides” (Bayer Intellectual Property GmbH, priority 2008, dated 2016)
